Blank lines part the entries; values can stand above or below the molecule they belong to.
Key:
Mus musculus [1] = test: The compound was tested in vivo(ob/ob mouse) for intestinal absorption against plasma glucose at a concentration of 50 mg/kg/day.; type: functional
Mus musculus [2] = test: The compound was tested in vivo(ob/ob mouse) for intestinal absorption against plasma glucose at a concentration of 10 mg/kg/day.; type: functional
Mus musculus [3] = test: The compound was tested in vivo(ob/ob mouse) for intestinal absorption against insulin, at a concentration of 75 mg/kg/day.; type: functional
Mus musculus [4] = test: The compound was tested in vivo(ob/ob mouse) for intestinal absorption against insulin, at a concentration of 25 mg/kg/day.; type: functional
Mus musculus [5] = test: The compound was tested in vivo(ob/ob mouse) for intestinal absorption against plasma glucose at a concentration of 75 mg/kg/day.; type: functional
Mus musculus [6] = test: The compound was tested in vivo(ob/ob mouse) for intestinal absorption against insulin, at a concentration of 50 mg/kg/day.; type: functional
Mus musculus [7] = test: The compound was tested in vivo(ob/ob mouse) for intestinal absorption against plasma glucose at a concentration of 25 mg/kg/day.; type: functional
Mus musculus [8] = test: The compound was tested in vivo(ob/ob mouse) for intestinal absorption against insulin, at a concentration of 10 mg/kg/day.; type: functional
Mus musculus [9] = test: The compound was tested in vivo(ob/ob mouse) for intestinal absorption against insulin, at a concentration of 200 mg/kg/day.; type: functional
Mus musculus [10] = test: The compound was tested in vivo(ob/ob mouse) for intestinal absorption against plasma glucose at a concentration of 200 mg/kg/day.; type: functional
Mus musculus [11] = test: The compound was tested in vivo(ob/ob mouse) for intestinal absorption against insulin, at a concentration of 100 mg/kg/day.; type: functional
Mus musculus [12] = test: The compound was tested in vivo(ob/ob mouse) for intestinal absorption against plasma glucose at a concentration of 100 mg/kg/day.; type: functional
[13] = The compound was tested in vitro for the inhibitory activity against human HePTP360 (Hematopoietic protein tyrosine phosphatase)
Mus musculus [14] = test: The compound was tested in vivo(ob/ob mouse) for intestinal absorption against insulin, at a concentration of 5 mg/kg/day.; type: functional
[15] = biological target: Dual specificity protein phosphatase 3 (Homo sapiens, UniProt P51452); test: The compound was tested in vitro for the inhibitory activity against Dual specificity protein phosphatase 3 (SH-PTP1) (human PTPases.)
Dual specificity protein phosphatase 3, sequence (P51452 whole entry): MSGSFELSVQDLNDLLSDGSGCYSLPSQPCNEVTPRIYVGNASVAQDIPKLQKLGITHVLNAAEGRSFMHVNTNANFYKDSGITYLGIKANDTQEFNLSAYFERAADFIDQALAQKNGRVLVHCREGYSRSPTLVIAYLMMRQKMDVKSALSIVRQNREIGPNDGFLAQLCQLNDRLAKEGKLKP

[16] = biological target: Tyrosine-protein phosphatase non-receptor type 6 (Homo sapiens, UniProt P29350); test: The compound was tested in vitro for the inhibitory activity against Protein-tyrosine phosphatase 1C (SH-PTP1) (human PTPases.)
Tyrosine-protein phosphatase non-receptor type 6, sequence (P29350 whole entry): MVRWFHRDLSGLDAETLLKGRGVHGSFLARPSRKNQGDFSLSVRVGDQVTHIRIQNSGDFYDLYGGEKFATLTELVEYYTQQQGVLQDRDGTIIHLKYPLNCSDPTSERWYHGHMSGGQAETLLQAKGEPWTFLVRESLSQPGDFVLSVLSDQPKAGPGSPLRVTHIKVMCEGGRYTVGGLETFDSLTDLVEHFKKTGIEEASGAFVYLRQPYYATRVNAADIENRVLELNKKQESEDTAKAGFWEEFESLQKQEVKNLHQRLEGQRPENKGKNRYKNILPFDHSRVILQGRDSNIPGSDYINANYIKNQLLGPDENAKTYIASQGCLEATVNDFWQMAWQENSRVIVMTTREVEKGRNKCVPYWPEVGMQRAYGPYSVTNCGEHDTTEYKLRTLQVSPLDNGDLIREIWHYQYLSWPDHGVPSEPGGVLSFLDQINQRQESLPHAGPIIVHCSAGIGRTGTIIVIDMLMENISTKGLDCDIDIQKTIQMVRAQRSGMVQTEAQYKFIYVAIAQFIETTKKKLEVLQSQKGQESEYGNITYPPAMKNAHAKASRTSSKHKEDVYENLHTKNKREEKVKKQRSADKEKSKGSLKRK

[17] = biological target: T1, Receptor-type tyrosine-protein phosphatase C (Homo sapiens, UniProt P08575); test: The compound was tested in vitro for the inhibitory activity against CD45 antigen (human PTPases.)
T1 sequence (P08575 whole entry): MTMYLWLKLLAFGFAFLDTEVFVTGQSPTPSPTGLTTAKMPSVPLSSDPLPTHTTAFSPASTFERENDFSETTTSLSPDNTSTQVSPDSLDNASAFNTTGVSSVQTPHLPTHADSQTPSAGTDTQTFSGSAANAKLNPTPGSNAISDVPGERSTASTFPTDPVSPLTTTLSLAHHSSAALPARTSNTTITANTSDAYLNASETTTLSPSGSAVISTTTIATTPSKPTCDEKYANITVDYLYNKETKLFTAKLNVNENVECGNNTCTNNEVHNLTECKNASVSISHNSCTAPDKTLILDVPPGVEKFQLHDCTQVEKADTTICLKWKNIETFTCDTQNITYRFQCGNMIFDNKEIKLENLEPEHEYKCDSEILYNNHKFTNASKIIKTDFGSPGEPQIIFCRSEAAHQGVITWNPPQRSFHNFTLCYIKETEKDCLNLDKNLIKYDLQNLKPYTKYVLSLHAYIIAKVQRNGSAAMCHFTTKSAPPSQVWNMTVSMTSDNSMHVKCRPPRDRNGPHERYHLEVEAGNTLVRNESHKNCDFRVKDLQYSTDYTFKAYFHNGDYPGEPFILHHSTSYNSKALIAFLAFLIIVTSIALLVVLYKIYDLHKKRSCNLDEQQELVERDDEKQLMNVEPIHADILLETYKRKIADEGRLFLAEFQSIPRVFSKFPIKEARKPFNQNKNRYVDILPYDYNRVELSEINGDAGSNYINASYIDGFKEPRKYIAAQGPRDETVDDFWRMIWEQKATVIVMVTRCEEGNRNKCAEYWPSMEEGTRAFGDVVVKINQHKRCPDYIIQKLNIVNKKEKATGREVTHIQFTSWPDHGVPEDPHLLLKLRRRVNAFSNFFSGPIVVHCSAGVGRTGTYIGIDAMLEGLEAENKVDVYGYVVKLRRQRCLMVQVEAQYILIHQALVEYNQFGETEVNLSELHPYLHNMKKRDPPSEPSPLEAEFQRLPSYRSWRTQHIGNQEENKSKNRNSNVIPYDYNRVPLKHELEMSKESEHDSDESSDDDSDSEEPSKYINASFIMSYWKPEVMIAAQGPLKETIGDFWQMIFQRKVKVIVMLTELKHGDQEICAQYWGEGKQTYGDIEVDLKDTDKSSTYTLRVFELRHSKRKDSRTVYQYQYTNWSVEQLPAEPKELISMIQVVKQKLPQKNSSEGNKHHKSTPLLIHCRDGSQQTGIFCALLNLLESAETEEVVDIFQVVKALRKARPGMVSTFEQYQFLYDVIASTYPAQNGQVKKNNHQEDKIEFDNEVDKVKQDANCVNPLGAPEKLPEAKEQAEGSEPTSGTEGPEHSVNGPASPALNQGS

[18] = biological target: T2, Tyrosine-protein phosphatase non-receptor type 1 (Homo sapiens, UniProt P18031); test: The compound was tested in vitro for the inhibitory activity against hPTP1B (human PTPases.)
T2 sequence (P18031 whole entry): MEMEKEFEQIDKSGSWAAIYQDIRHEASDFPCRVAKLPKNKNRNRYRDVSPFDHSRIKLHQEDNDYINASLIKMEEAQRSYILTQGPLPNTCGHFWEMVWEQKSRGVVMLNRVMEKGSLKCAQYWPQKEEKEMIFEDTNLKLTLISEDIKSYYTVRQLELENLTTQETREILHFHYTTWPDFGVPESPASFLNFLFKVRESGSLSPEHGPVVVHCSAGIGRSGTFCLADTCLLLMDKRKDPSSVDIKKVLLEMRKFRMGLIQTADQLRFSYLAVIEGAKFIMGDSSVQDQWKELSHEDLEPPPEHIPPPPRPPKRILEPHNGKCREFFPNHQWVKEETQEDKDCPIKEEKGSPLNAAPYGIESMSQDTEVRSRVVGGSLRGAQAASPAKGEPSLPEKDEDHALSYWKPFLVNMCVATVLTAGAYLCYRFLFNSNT

[19] = biological target: T3, Tyrosine-protein phosphatase non-receptor type 12 (Homo sapiens, UniProt Q05209); test: The compound was tested in vitro for the inhibitory activity against Protein tyrosine phosphatase PEST (SH-PTP1) (human PTPases.)
T3 sequence (Q05209 whole entry): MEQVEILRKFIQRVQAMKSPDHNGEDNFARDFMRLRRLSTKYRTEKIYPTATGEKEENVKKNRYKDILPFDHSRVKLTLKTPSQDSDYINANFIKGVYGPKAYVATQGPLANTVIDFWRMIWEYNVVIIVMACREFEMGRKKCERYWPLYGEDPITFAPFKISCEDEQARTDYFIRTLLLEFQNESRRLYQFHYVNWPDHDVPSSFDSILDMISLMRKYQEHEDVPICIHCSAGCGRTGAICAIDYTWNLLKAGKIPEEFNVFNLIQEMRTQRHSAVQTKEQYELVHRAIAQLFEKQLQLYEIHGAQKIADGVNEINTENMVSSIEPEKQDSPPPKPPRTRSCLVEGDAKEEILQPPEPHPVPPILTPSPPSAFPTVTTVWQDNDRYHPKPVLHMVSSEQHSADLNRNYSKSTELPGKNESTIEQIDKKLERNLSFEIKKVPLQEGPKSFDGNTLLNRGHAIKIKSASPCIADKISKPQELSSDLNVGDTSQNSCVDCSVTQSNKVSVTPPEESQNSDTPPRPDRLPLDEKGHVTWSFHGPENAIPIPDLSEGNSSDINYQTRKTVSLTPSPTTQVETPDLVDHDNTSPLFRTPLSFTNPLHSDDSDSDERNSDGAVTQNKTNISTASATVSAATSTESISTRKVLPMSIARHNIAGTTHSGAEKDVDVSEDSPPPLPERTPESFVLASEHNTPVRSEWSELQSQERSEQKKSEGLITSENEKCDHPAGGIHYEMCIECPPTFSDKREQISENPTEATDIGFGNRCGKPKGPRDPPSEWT

Mus musculus [20] = test: The compound was tested in vivo(ob/ob mouse) for intestinal absorption against plasma glucose at a concentration of 1 mg/kg/day. (i.p.); type: functional; conditions: route intraperitoneal
Mus musculus [21] = test: The compound was tested in vivo(ob/ob mouse) for intestinal absorption against plasma glucose at a concentration of 5 mg/kg/day.; type: functional
[22] = biological target: Receptor-type tyrosine-protein phosphatase beta (Homo sapiens, UniProt P23467); test: The compound was tested in vitro for the inhibitory activity against Protein-tyrosine phosphatase beta (SH-PTP1) (human PTPases.)
Receptor-type tyrosine-protein phosphatase beta, sequence (P23467 whole entry): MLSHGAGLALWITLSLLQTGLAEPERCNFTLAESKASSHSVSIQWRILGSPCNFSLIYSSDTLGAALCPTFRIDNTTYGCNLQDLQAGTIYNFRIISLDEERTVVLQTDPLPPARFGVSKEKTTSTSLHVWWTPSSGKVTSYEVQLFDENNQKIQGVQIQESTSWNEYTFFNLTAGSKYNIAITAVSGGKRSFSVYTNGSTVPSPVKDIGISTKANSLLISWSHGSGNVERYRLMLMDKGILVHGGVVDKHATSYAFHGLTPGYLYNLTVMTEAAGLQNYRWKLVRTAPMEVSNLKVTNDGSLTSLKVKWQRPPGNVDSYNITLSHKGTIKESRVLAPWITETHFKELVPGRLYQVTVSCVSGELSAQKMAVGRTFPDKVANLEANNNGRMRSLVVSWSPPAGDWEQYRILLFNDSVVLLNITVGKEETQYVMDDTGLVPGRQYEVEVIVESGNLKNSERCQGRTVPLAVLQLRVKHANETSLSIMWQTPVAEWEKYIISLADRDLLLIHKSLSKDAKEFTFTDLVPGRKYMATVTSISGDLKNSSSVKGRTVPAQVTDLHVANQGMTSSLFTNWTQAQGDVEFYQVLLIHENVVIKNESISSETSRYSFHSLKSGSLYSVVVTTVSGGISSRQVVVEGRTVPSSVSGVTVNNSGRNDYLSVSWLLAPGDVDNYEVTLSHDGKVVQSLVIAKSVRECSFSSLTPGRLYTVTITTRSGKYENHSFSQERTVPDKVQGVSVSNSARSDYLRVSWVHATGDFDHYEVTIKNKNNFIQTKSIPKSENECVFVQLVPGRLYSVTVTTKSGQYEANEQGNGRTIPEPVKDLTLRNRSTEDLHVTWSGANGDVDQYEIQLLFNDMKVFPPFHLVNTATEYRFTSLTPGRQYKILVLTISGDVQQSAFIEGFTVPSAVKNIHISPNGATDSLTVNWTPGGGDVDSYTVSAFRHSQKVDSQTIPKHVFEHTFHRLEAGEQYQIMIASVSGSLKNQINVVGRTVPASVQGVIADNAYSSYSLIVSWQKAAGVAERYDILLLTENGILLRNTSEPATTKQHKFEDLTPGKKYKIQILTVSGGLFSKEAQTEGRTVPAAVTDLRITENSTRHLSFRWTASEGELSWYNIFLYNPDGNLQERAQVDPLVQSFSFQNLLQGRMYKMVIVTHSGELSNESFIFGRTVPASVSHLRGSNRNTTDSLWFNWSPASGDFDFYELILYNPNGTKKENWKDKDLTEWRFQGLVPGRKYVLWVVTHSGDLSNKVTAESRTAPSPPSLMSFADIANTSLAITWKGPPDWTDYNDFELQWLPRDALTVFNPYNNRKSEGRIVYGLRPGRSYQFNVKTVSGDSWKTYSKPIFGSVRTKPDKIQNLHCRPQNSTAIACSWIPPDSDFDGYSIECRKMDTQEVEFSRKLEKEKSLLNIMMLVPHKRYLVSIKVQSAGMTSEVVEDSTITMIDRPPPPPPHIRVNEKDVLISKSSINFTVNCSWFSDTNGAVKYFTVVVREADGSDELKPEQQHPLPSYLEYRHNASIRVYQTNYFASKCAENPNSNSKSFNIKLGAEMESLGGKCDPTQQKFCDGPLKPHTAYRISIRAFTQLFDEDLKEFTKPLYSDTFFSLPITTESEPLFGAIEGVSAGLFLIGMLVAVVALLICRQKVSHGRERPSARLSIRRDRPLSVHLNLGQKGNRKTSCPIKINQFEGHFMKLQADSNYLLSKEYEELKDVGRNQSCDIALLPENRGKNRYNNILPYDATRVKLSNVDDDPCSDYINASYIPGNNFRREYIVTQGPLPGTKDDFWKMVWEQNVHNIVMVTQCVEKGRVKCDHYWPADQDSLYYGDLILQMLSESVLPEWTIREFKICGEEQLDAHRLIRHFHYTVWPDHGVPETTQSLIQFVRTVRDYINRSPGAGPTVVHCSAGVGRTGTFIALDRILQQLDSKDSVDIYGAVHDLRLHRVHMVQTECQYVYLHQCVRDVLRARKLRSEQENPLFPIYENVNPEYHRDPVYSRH

[23] = biological target: Receptor-type tyrosine-protein phosphatase alpha (Homo sapiens, UniProt P18433); test: The compound was tested in vitro for the inhibitory activity against Protein-tyrosine phosphatase 1 alpha (LRP) (human PTPases.)
Receptor-type tyrosine-protein phosphatase alpha, sequence (P18433 whole entry): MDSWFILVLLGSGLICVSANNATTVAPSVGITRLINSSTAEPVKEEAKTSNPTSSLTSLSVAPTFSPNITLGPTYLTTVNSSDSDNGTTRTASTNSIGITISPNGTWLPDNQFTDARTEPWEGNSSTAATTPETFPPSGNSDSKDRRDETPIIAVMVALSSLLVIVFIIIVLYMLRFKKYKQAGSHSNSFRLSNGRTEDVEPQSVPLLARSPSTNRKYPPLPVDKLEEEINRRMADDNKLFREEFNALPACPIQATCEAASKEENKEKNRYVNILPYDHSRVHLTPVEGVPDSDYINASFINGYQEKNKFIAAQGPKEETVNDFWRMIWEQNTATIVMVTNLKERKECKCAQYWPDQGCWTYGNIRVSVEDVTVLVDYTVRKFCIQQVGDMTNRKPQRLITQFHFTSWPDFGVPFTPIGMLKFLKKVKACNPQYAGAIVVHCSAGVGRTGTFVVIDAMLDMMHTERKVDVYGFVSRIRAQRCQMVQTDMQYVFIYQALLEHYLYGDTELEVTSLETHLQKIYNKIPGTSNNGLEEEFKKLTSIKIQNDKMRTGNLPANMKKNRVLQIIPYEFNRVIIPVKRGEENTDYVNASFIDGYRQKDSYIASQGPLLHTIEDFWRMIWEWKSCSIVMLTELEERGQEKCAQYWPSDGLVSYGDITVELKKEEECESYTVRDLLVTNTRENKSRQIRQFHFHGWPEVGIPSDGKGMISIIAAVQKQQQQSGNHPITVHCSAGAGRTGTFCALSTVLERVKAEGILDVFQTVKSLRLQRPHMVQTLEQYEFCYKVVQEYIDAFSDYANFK

[24] = biological target: T2, Tyrosine-protein phosphatase non-receptor type 1; test: The compound was tested in vitro for the inhibitory activity against Protein-tyrosine phosphatase 1B (human PTPases.)
[25] = biological target: T2, Tyrosine-protein phosphatase non-receptor type 1; test: The compound was tested for inhibitory activity against recombinant Protein-tyrosine phosphatase 1B (human).
Mus musculus [26] = test: The compound was tested in vivo(ob/ob mouse) for intestinal absorption against plasma glucose at a concentration of 90 mg/kg/day.; type: functional
Mus musculus [27] = test: The compound was tested in vivo(ob/ob mouse) for intestinal absorption against insulin, at a concentration of 90 mg/kg/day.; type: functional

Structure (SMILES): O=C(O)[C@@H](Cc1ccccc1)Oc1c(Br)cc(-c2c3ccccc3c(Br)c3sc4ccccc4c23)cc1Br
Decrease (Mus musculus [1]): 35%
Decrease (Mus musculus [2]): 26%
Decrease (Mus musculus [3]): 85%
Decrease (Mus musculus [4]): 72%
Decrease (Mus musculus [5]): 50%
Decrease (Mus musculus [6]): 71%
Decrease (Mus musculus [7]): 26%
Decrease (Mus musculus [8]): <15%

Structure (SMILES): Cc1c(C)c2c(c(C)c1O)CCC(C)(COc1ccc(CC3SC(=O)NC3=O)cc1)O2 (centres undefined) [TROGLITAZONE]
inhibition in vivo at 200 mg/kg/day (Mus musculus [9]): < 15%
inhibition in vivo at 200 mg/kg/day (Mus musculus [10]): 34%

Structure (SMILES): CC1(COc2ccc(CC3SC(=O)NC3=O)cc2)CCCCC1 (centres undefined) [CIGLITAZONE]
inhibition in vivo at 100 mg/kg/day (Mus musculus [11]): 39%
inhibition in vivo at 100 mg/kg/day (Mus musculus [12]): 43%

Structure (SMILES): Oc1c(Br)cc(-c2c3ccccc3c(Br)c3sc4ccccc4c23)cc1Br
Decrease (Mus musculus [11]): <15%
Decrease (Mus musculus [12]): <15%

IC50 [13]: 2.1 µM
IC50 [15]: 11 µM
IC50 [16]: 9 µM
IC50 [17]: 6.3 µM
IC50 [18]: 0.08 µM
IC50 [19]: 2.2 µM
IC50 [22]: 0.5 µM
IC50 [23]: 13 µM
Structure (SMILES): O=C(O)[C@@H](Cc1ccccc1)Oc1c(Br)cc(-c2c3ccccc3c(Br)c3oc4ccccc4c23)cc1Br
Decrease (Mus musculus [14]): 56%
Decrease (Mus musculus [2]): 29%
Decrease (Mus musculus [4]): 86%
Decrease (Mus musculus [20]): 38%
Decrease (Mus musculus [21]): <15%
Decrease (Mus musculus [7]): 42%
Decrease (Mus musculus [8]): 69%

IC50 [13]: 2.7 µM
IC50 [15]: 7.9 µM
IC50 [16]: 5 µM
IC50 [17]: 9.1 µM
IC50 [19]: 2.3 µM
IC50 [24]: 0.39 µM
IC50 [22]: 0.6 µM
IC50 [23]: 17 µM
Structure (SMILES): O=C(O)COc1c(Br)cc(-c2c3ccccc3c(Br)c3sc4ccccc4c23)cc1Br
Decrease (Mus musculus [11]): 61%
Decrease (Mus musculus [12]): 23%

IC50 [25]: 0.011 µM
Structure (SMILES): O=C(O)[C@@H](CCN1C(=O)c2ccccc2C1=O)Oc1c(Br)cc(-c2c3ccccc3c(Br)c3sc4ccccc4c23)cc1Br
inhibition in vivo at 100 mg/kg/day (Mus musculus [11]): < 15%
inhibition in vivo at 100 mg/kg/day (Mus musculus [12]): < 15%

Structure (SMILES): O=P(O)(O)COc1c(Br)cc(-c2c3ccccc3c(Br)c3sc4ccccc4c23)cc1Br
Decrease (Mus musculus [26]): <15%
Decrease (Mus musculus [27]): <15%
